# Laboratory results published in patent US20100209489A1, “Formulations of desvenlafaxine” (Supernus Pharmaceuticals, Inc., priority 2009, published 2010).
# Where two headings read alike, the source gives them in different places.
# How the values were obtained:
# [1] = cited from earlier work
# [2] = DI water, room temperature overnight
# Experimental: All samples were prepared with DI water, pH 5.5. Controls were prepared similarly without the use of modulators. All test samples were mixed overnight at room temperature. The samples were then filtered and analyzed using HPLC-UV method.
smiles,measurement,setting,value
CN(C)CC(c1ccc(O)cc1)C1(O)CCCCC1 (racemic) [desvenlafaxine],adverse events and discontinuations,[1]; at higher doses (above 50 mg/day),more frequent
same,efficacy in clinical studies,[1]; dose of 50-400 mg/day,effective
same,additional benefit in clinical studies,[1]; doses higher than 50 mg/day,no additional benefit
"CN(C)CC(c1ccc(O)cc1)C1(O)CCCCC1.Cl.O (single isomer, unassigned; (-)) [(−)-O-desmethyl venlafaxine HCl monohydrate]",solubility,at about pH 6.0,less than 100 mg/mL
same,solubility,"higher pH, close to the physiological pH",less than 1 mg/mL
same,solubility,"low pH, for example pH 1.0",a few hundred
same,API Solubility,"[2]; control without modulators, sample pH 5.2-5.5",611 mg/mL
same,API Solubility,"[2]; with Alginic acid, sample pH 2.4-2.7",568 mg/mL
same,API Solubility,"[2]; with Ascorbic acid, sample pH 2.7-3.0",597 mg/mL
same,API Solubility,"[2]; with Beta cyclodextrin, sample pH 5.2-5.5",502 mg/mL
same,API Solubility,"[2]; with Carbopol 941, sample pH 3.2-3.5",587 mg/mL
same,API Solubility,"[2]; with Citric acid, sample pH 2.1-2.4",612 mg/mL
same,API Solubility,"[2]; with Eudragit L100, sample pH 3.2-3.5",547 mg/mL
same,API Solubility,"[2]; with Fumaric acid, sample pH <1.8",639 mg/mL
same,API Solubility,"[2]; with Gelucire 44/14, sample pH 5.2-5.5",521 mg/mL
same,API Solubility,"[2]; with HPMCP, sample pH 2.7-3.0",572 mg/mL
same,API Solubility,"[2]; with Hydroxypropyl beta cyclodextrin, sample pH 5.5-5.7",589 mg/mL
same,API Solubility,"[2]; with Klucel LF, sample pH 5.5",536 mg/mL
same,API Solubility,"[2]; with Kollidone 25, sample pH 5.2-5.5",610 mg/mL
same,API Solubility,"[2]; with Kollidone/Tartaric acid, sample pH 2.1-2.4",661 mg/mL
same,API Solubility,"[2]; with Lactose, sample pH 5.2-5.5",665 mg/mL
same,API Solubility,"[2]; with Malic acid, sample pH 1.5-2.0",677 mg/mL
same,API Solubility,"[2]; with Maltrin M150/Xylitol/Sodium lauryl sulfate/Gelucire 44/14, sample pH 5.2-5.5",432 mg/mL
same,API Solubility,"[2]; with Maltrin M150, sample pH 5.2-5.5",565 mg/mL
same,API Solubility,"[2]; with Mannitol/Sorbitol/Tartaric acid/Eudragit L100, sample pH <1.8",521 mg/mL
same,API Solubility,"[2]; with Mannitol, sample pH 5.2-5.5",613 mg/mL
same,API Solubility,"[2]; with Methocel E5, sample pH 5.7",504 mg/mL
same,API Solubility,"[2]; with Methylcyclodextrin, sample pH 5.5",561 mg/mL
same,API Solubility,"[2]; with PEG 3350, sample pH 5.2-5.5",602 mg/mL
same,API Solubility,"[2]; with PEG 8000, sample pH 5.2-5.5",569 mg/mL
same,API Solubility,"[2]; with Poloxamer 188, sample pH 5.2-5.5",552 mg/mL
same,API Solubility,"[2]; with Sodium Docusate, sample pH 6.3-6.5",539 mg/mL
same,API Solubility,"[2]; with Sodium lauryl sulfate, sample pH 6.3-6.6",524 mg/mL
same,API Solubility,"[2]; with Sorbitol, sample pH 5.2-5.5",549 mg/mL
same,API Solubility,"[2]; with Tartaric acid, sample pH 1.5-2.0",719 mg/mL
same,API Solubility,"[2]; with Triethyl citrate, sample pH 5.2-5.5",643 mg/mL
same,API Solubility,"[2]; with Tween 80, sample pH 5.2-5.5",544 mg/mL
same,API Solubility,"[2]; with Vitamin E TPGS, sample pH 5.2-5.5",535 mg/mL
same,API Solubility,"[2]; with Xylitol, sample pH 5.2-5.5",547 mg/mL
